Data on one molecule can be found in ChEMBL document CHEMBL1649146, “Contribution of the autolysin AtlA to the bactericidal activity of amoxicillin against Enterococcus faecalis JH2-2” (2009).

Assay [1] has as its system Enterococcus faecalis. The assay can be described thus: Antibacterial activity against atlA-deficient Enterococcus faecalis JH2-2 assessed as bacterial killing at 2 ug/ml by macrodilution method. The class given is functional, organism-based.
The test system of assay [2] is Enterococcus faecalis. The assay can be described thus: Antibacterial activity against Enterococcus faecalis JH2-2 assessed as decrease in decrease in bacterial count at 2 ug/ml after 3 hrs by macrodilution method. Format: functional.
Assay [3] concerns Enterococcus faecalis. Briefly: Antibacterial activity against Enterococcus faecalis JH2-2 by macrodilution method. The class given is functional.
Assay [4] relates to Enterococcus faecalis. Briefly: Antibacterial activity against atlA-deficient Enterococcus faecalis JH2-2 assessed as decrease in bacterial count at 2 ug/ml by macrodilution method. The arrangement: scale not given: the % may be the effect or the level left. The class given is functional.
For assay [5], the system named is Enterococcus faecalis. Briefly: Antibacterial activity against atlA-deficient Enterococcus faecalis JH2-2 assessed as decrease in decrease in bacterial count at 2 ug/ml after 6 hrs by macrodilution method. The class given is functional.
Assay [6] relates to Enterococcus faecalis. Briefly: Antibacterial activity against Enterococcus faecalis JH2-2 assessed as decrease in decrease in bacterial count at 2 ug/ml after 24 hrs by macrodilution method. The class given is functional.
In assay [7] the test system is Enterococcus faecalis. The assay can be described thus: Antibacterial activity against Enterococcus faecalis JH2-2 infected in New Zealand White rabbit assessed as bacterial count per gram vegetation at 50 mg/kg, im TID for 3 days administered 48 hrs post bacterial challenge (reference value: 9.40+/-0.62 log10 CFU/g). Format: functional. The following applies: route intramuscular.

Assay [8] deals with Enterococcus faecalis. Briefly: Antibacterial activity against Enterococcus faecalis JH2-2 assessed as decrease in decrease in bacterial count at 2 ug/ml after 6 hrs by macrodilution method. The class given is functional.
The test system of assay [9] is Enterococcus faecalis. The assay can be described thus: Antibacterial activity against atlA-deficient Enterococcus faecalis JH2-2 by macrodilution method. Format: functional.
The subject of assay [10] is Enterococcus faecalis. The assay can be described thus: Antibacterial activity against atlA-deficient Enterococcus faecalis JH2-2 assessed as decrease in decrease in bacterial count at 2 ug/ml after 3 hrs by macrodilution method. The class given is functional.
In assay [11] the test system is Enterococcus faecalis. Briefly: Antibacterial activity against atlA-deficient Enterococcus faecalis JH2-2 infected in New Zealand White rabbit assessed as bacterial count per gram vegetation at 50 mg/kg, im TID for 3 days administered 48 hrs post bacterial challenge (reference value: 8.34+/-1.66 log10 CFU/g). Format: functional. Conditions: route intramuscular.
The test system of assay [12] is Enterococcus faecalis. Briefly: Ratio of MBC to MIC in Enterococcus faecalis JH2-2. Format: functional.
In assay [13] the test system is Enterococcus faecalis. Briefly: Antibacterial activity against Enterococcus faecalis JH2-2 assessed as bacterial killing at 2 ug/ml by macrodilution method. The class given is functional, organism-based.
Assay [14] concerns Enterococcus faecalis. Briefly: Ratio of MBC to MIC in atlA-deficient Enterococcus faecalis JH2-2. The class given is functional.
Assay [15] has as its system Enterococcus faecalis. Briefly: Antibacterial activity against atlA-deficient Enterococcus faecalis JH2-2 assessed as decrease in decrease in bacterial count at 2 ug/ml after 24 hrs by macrodilution method. Format: functional.

≈ marks a conversion by molar mass, not a printed value. Calls of active or inactive are those of the source. The rule behind the calls is not given here.

For the molecule `CC1(C)S[C@@H]2[C@H](NC(=O)[C@H](N)c3ccc(O)cc3)C(=O)N2[C@H]1C(=O)O` [AMOXICILLIN], the result with Enterococcus faecalis [1] and in the assay with Enterococcus faecalis [13] was Active. The log10CFU/ml in the assay with Enterococcus faecalis [2] worked out at 2.57; in the assay with Enterococcus faecalis [5] it was 3.93; in the assay with Enterococcus faecalis [6], 7.82; in the assay with Enterococcus faecalis [8], 5.59; in the assay on Enterococcus faecalis [10], 1.5; in the assay with Enterococcus faecalis [15] it was 6.46. For the same molecule, the minimal bactericidal concentration (MBC) against Enterococcus faecalis [3] is 2 µg/mL (≈ 5.47 µM); in the assay with Enterococcus faecalis [9], over 1020 µg/mL. Moreover, the MIC with Enterococcus faecalis [3] was found to be 0.5 µg/mL (≈ 1.37 µM); against Enterococcus faecalis [9] it was 1 µg/mL (≈ 2.74 µM). Besides, in the assay with Enterococcus faecalis [4], the Activity result was “>=99.9%”. For the same molecule, the log10CFU/g in the assay on Enterococcus faecalis [7] was determined as 7.69; with Enterococcus faecalis [11], 8.55. The Ratio in the assay with Enterococcus faecalis [12] was 4; in the assay with Enterococcus faecalis [14] it was “>=32”.

For orientation: MBC means the lowest tested concentration that kills the bacteria rather than only halting them. A word on the MIC: it is the lowest concentration that inhibits growth of the organism.
